The text below walks through data of PubChem BioAssay (NCI).

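Cells were grown in 96-well plates and exposed to each compound for 48 hours at five concentrations; endpoints were interpolated linearly between bracketing concentrations, or set to the highest concentration if not reached. GI50: concentration for 50% inhibition of growth. TGI is the concentration that stops growth completely.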

Some test systems named below: SK-MEL-28 melanoma; UACC-62 melanoma; RXF 393 renal; MALME-3M melanoma; HT29 colon; UO-31 renal; SW-620 colon; 786-0 renal; MDA-MB-231 breast; HOP-92 NSCLC.
Holding throughout (assay): inhibition of tumour cell growth, NCI panel, 48 h

In the case of `C/C(=N\Nc1ccc2ccccc2n1)c1ccccn1`, the GI50 in the experiment on SK-MEL-28 melanoma is 0.345 µM; in the experiment on UACC-62 melanoma, 0.104 µM; in the experiment with RXF 393 renal it was 0.229 µM; in the experiment on MALME-3M melanoma, 0.0756 µM; in the experiment with HT29 colon, under 0.0407 µM; with UO-31 renal it was under 0.0395 µM. In addition, the GI50 was 0.1 µM with 786-0 renal and under 0.042 µM with MDA-MB-231 breast. The TGI worked out at 16.2 µM in the experiment with SK-MEL-28 melanoma; 0.652 µM in the experiment with UACC-62 melanoma; 5.86 µM in the experiment with RXF 393 renal; 2.15 µM with MALME-3M melanoma; 3.09 µM with HT29 colon; 0.676 µM with UO-31 renal. For the same molecule, the results for the TGI in the experiment with SW-620 colon, with 786-0 renal and in the experiment with MDA-MB-231 breast were 5.67 µM, 1.69 µM and 4.06 µM, respectively.
On to `O=C1C(=O)N(c2ccc(Cl)c(Cl)c2)C(=O)C(=O)C1c1nc2ccccc2s1`, for which the TGI with SK-MEL-28 melanoma, in the experiment on UACC-62 melanoma, with RXF 393 renal, in the experiment on HOP-92 NSCLC, in the experiment with MALME-3M melanoma and in the experiment on HT29 colon was over 100 µM throughout. Moreover, the TGI in the experiment on UO-31 renal, in the experiment on SW-620 colon and with 786-0 renal was over 100 µM in each case.
For the molecule `CSCC1CC(c2ccc(Cl)cc2)=NO1` (configuration not stated), the TGI with SK-MEL-28 melanoma, in the experiment on UACC-62 melanoma, in the experiment on HOP-92 NSCLC, in the experiment on MALME-3M melanoma, in the experiment on HT29 colon and with UO-31 renal was over 100 µM throughout. Moreover, the TGI with SW-620 colon and in the experiment on 786-0 renal was over 100 µM each time.
As to `O=c1cc(-c2ccccc2)[nH]c2cc(O)ccc12`, the TGI in the experiment on SK-MEL-28 melanoma is over 100 µM; in the experiment with UACC-62 melanoma it was 46.5 µM; with RXF 393 renal, 37.5 µM; in the experiment on HOP-92 NSCLC it was 70.3 µM; in the experiment with MALME-3M melanoma, over 100 µM; with HT29 colon it was 46.1 µM. In addition, the figures for the TGI in the experiment with UO-31 renal, in the experiment with SW-620 colon and in the experiment with 786-0 renal were 49.3 µM, 31.3 µM and over 100 µM, respectively.
`COc1ccc(N=c2ssc3c(=S)ssc23)cc1`: the TGI is 55.6 µM in the experiment with SK-MEL-28 melanoma; 61.8 µM in the experiment on UACC-62 melanoma; 38.7 µM with RXF 393 renal; 70.3 µM in the experiment on HOP-92 NSCLC; over 100 µM with MALME-3M melanoma; 35.8 µM with SW-620 colon. Also, the TGI with 786-0 renal was over 100 µM.
Regarding `COc1ccc(C2=C(Cl)c3cc(OC)c(OC)cc3C2Cl)cc1OC` (configuration not stated), the TGI in the experiment on SK-MEL-28 melanoma worked out at 34.5 µM; in the experiment with UACC-62 melanoma it was 31 µM; in the experiment with RXF 393 renal, 35.3 µM; with HOP-92 NSCLC it was 46.1 µM; in the experiment on MALME-3M melanoma, 40.6 µM; in the experiment on HT29 colon, 29.8 µM. In addition, the results for the TGI with UO-31 renal, in the experiment with SW-620 colon and in the experiment with 786-0 renal were 31.3 µM, 34.5 µM and 41.5 µM, respectively.
Regarding `CCOC(=O)C(=O)Nc1c(CC)cccc1C(C)C`, the TGI in the experiment with SK-MEL-28 melanoma, with UACC-62 melanoma, with RXF 393 renal, with HOP-92 NSCLC, with MALME-3M melanoma and with HT29 colon was over 100 µM each time. The TGI in the experiment with UO-31 renal, with SW-620 colon and in the experiment on 786-0 renal was over 100 µM each time.
Take `Nn1c(-c2ccccc2Cl)nc2ccccc2c1=O`: the TGI in the experiment with SK-MEL-28 melanoma, in the experiment on UACC-62 melanoma, with HOP-92 NSCLC, in the experiment with MALME-3M melanoma, with HT29 colon and in the experiment with UO-31 renal was over 100 µM in each case. Moreover, the TGI with SW-620 colon and with 786-0 renal was over 100 µM in each case.
As to `CS(=O)(=O)Oc1cccc(/C=N/N=C(\N)NO)c1`, the TGI is over 100 µM in the experiment with SK-MEL-28 melanoma; 19.5 µM in the experiment on UACC-62 melanoma; over 100 µM in the experiment on RXF 393 renal; over 100 µM in the experiment with HOP-92 NSCLC; over 100 µM in the experiment on MALME-3M melanoma; over 100 µM in the experiment with HT29 colon. For the same molecule, the TGI was over 100 µM in the experiment with UO-31 renal, 63.4 µM in the experiment on SW-620 colon and 54.3 µM in the experiment with 786-0 renal.
Regarding `CCOC(=O)C1=C(NC)OC/C1=N\NC(=O)c1ccccc1O`, the TGI was over 100 µM in the experiment with SK-MEL-28 melanoma; 80.5 µM in the experiment on UACC-62 melanoma; over 100 µM in the experiment with RXF 393 renal; over 100 µM in the experiment with HOP-92 NSCLC; over 100 µM with MALME-3M melanoma; 26.1 µM in the experiment on UO-31 renal. Further, the TGI with SW-620 colon and in the experiment on 786-0 renal was over 100 µM throughout.
In the case of `N#CC(C(=O)CCC(=O)Nc1cccc(Cl)c1)c1ccccc1` (configuration not stated), the TGI in the experiment with SK-MEL-28 melanoma, in the experiment with UACC-62 melanoma, with RXF 393 renal, in the experiment on HOP-92 NSCLC, in the experiment with MALME-3M melanoma and in the experiment with HT29 colon was over 100 µM each time. Besides, the TGI in the experiment with UO-31 renal and in the experiment with 786-0 renal was over 100 µM throughout.
Consider `CCC1CN2CCc3cc(OC)c(OC)cc3C2CC1CC1c2cc(OC)c(OC)cc2CCN1C(=O)C1CCCN1C(=O)OCc1ccccc1` (configuration not stated), for which the TGI turned out to be 30.7 µM in the experiment on SK-MEL-28 melanoma; 29.7 µM in the experiment with UACC-62 melanoma; 22.4 µM in the experiment on RXF 393 renal; 22 µM in the experiment on HOP-92 NSCLC; 32.4 µM in the experiment with MALME-3M melanoma; 27.4 µM in the experiment on HT29 colon. Also, the TGI with UO-31 renal turned out to be 26 µM; with SW-620 colon it was 28 µM; in the experiment with 786-0 renal, 40.8 µM.
Regarding `COC1CC(OS(=O)(=O)c2ccc(C)cc2)C(OC(=O)c2ccccc2)C(C)O1` (configuration not stated), the GI50 in the experiment on SK-MEL-28 melanoma is over 100 µM; with RXF 393 renal it was over 10 µM; in the experiment with HOP-92 NSCLC, over 10 µM; in the experiment on MALME-3M melanoma it was over 100 µM; in the experiment on HT29 colon it was over 100 µM; in the experiment with UO-31 renal, over 100 µM. The GI50 with SW-620 colon and with 786-0 renal was over 100 µM throughout. For the same molecule, the TGI in the experiment on SK-MEL-28 melanoma, in the experiment with UACC-62 melanoma, in the experiment with RXF 393 renal, in the experiment with HOP-92 NSCLC, in the experiment with MALME-3M melanoma and in the experiment on HT29 colon was over 100 µM throughout. The TGI in the experiment on UO-31 renal, in the experiment on SW-620 colon and in the experiment with 786-0 renal was over 100 µM in each case.
